The values below come from patent publication US5972939A, “Cyclopentene derivatives useful as antagonists of the motilin receptor” (Ortho-McNeil Pharmaceutical, Inc., priority 1998, dated 1999).

Each structure is given as a SMILES string. Where two headings read alike, the source gives them in different places.

Experiment [1] has as its target T1, motilin receptors located on the colon of mature rabbits (Oryctolagus cuniculus, UniProt G1T803).
T1 construct: The colon from mature New Zealand rabbits was removed, dissected free from the mucosa and serosa layers, and diced into small pieces; from tissue; host or cells: colon smooth muscle of mature New Zealand rabbits, crude membrane homogenate
Kind of experiment: competition with radiolabeled (125I) porcine motilin for the motilin receptors of rabbit colon. The following applies: for IC50: rabbit colon, 125I motilin. Format: binding. As to the method: The compounds of the invention were tested for their ability to compete with radiolabeled motilin (porcine) for the motilin receptors located on the colon of mature rabbits. The colon from mature New Zealand rabbits was removed, dissected free from the mucosa and serosa layers, and diced into small pieces. […] The homogenate was centrifuged at 1000×g for 15 min. and the supernatant discarded. The pellet was washed twice before being suspended in homogenizing buffer. This crude homogenate is then passed first through a 19 gauge needle then a 23 gauge needle to further suspend the material and stored as -80° C. […] After 30 min, at 30° C., the material was cooled on ice and centrifuged at 13,000×g for 1 minute. The pellet was washed with 1 mL 0.9% saline and centrifuged at 13,000×g for 15 seconds. The pellet was washed again with cold saline and the supernatant was removed. The pellet was counted in the gamma counter to determine the percentage of […] motilin and thereby the percent inhibition of the test compound. IC50s were determined for some compounds by standard techniques.

Experiment [2] relates to rabbit duodenum smooth muscle (motilin and erythromycin induced contractions). Kind of experiment: inhibition of motilin (porcine) induced contractions in rabbit duodenum smooth muscle. The format is cell-based. The settings on record: for IC50: rabbit duodenum strips, porcine motilin; for inhibition at 2 µM: @ 2 μM (2.0 μM). As to the method: Select compounds of the invention were evaluated for their ability to inhibit motilin and erythromycin induced contractions in the rabbit duodenum smooth muscle. Rabbits were fasted 24-48 h and euthanized. The venral midline incision was made approximately 7.5 cm above the umbilicus upto the xyphoid process, exposing the upper peritoneal cavity. The first 8 cm. of the duodenum starting at the pyloric valve was quickly removed and placed in Krebs solution containing NaCl, ([…]), KCl (4.7 mM), MgSO4 *7 H2 O (1.2 mM), CaCl2 *2 H2 O (2.4 mM), KH2 PO4 (1 mM), D-glucose (10 mM), and NaHCO3 (24 mM). The lumen was flushed with Krebs and excess tissue was removed. The tissue was cut lengthwise, splayed open with the longitudinal muscle layer facing up, and the longitudinal muscle layer was released away from the circular muscle and cut into 3×30 mm strips. A pre-tied 4-0 silk ligature with a loop was placed at the middle of the strip and the strip was folded over the loop so the strip was half its original length. The tissues were mounted in a 10 mL tissue bath (Radnotti Glass Technology, Inc., Monrovia, Calif.) containing Krebs solution gassed with 95% O2 5% CO2 at 37° C. […] The tissues were allowed to equilibrate for 60-90 min with 2-3 wash cycles. The tissues were equilibrated with two initial contractions induced by a concentration of acetylcholine (1×10^-4 M) that produced a maximal contraction (0.1 mM), with the highest taken as 100% maximall contraction of that tissue. Base line and response levels are expressed as grams tension developed and as a percent of the response to acetylcholine. The test compounds were dissolved in DMSO (2 mM/100% DMSO) and applied to the prepared strips 5-15 minutes prior to the addition of porcine motilin. After addition, the tension is constantly monitored over 5 min and the maximum tension is recorded. The percent contraction was measured at four ascending concentrations and where appropriate IC50s were determined.

Setting [3] is: Oryctolagus cuniculus, read-out: IC50.

T1 sequence (G1T803 1-400): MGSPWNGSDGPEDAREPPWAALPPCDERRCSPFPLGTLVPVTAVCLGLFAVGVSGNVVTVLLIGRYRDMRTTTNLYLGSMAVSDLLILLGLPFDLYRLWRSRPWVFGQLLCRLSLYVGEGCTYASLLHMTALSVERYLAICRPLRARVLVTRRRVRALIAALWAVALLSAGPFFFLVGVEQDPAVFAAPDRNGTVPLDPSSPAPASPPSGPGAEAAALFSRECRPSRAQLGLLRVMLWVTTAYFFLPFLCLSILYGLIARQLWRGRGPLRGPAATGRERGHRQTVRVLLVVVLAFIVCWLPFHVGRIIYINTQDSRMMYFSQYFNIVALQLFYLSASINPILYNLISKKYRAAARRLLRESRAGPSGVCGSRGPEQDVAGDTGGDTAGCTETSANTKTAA

In general, IC50 refers to the concentration that gives 50% inhibition. For `O=C(Nc1ccccc1)N(CC1=CC(Cc2ccccc2)(NC(=O)C(Cl)(Cl)Cl)CC1)c1cccc(OCCN2CCOCC2)c1` (stereo not shown) [Compound 7, 3-Benzyl-3-trichloroacetylamino-1-(N-phenylaminocarbonyl)-N-[(3-(2-morpholinoethoxy)phenyl)amino]methylcyclopentene], the IC50 came out at 45 nM in experiment [1] (read-out: IC50) and 287 nM in experiment [2] (read-out: IC50).
With `O=C(Nc1ccccc1)N(CC1=CC(Cc2ccccc2)(NC(=O)C(Cl)(Cl)Cl)CC1)c1cccc(OCCN2CCOCC2)c1` (stereo not shown) [Compound 8], the IC50 in experiment [1] (read-out: IC50) is 20 nM; in experiment [2] (read-out: IC50) it was 280 nM.
Take `O=C(Nc1ccccc1)N(CC1=CC(Cc2ccccc2)(NC(=O)C(Cl)(Cl)Cl)CC1)c1cccc(OCCN2CCOCC2)c1` (stereo not shown) [Compound 9, 3-Benzyl-3-trichloroacetylamino-1-(N-phenylaminocarbonyl)-N-[(3-(2-morpholinoethoxy)phenyl)amino]methylcyclopentene]: the IC50 in experiment [1] (read-out: IC50) was above 300 nM; in experiment [2] (read-out: IC50), 890 nM.
Turning to `O=C(c1ccccc1)N(CC1=CC(Cc2ccccc2)(NC(=O)C(Cl)(Cl)Cl)CC1)c1cccc(OCCN2CCOCC2)c1` (stereo not shown) [Compound 10, 3-Benzyl-3-trichloroacetylamino-1-(N-phenylcarbonyl)-N-[(3-(2-morpholinoethoxy)phenyl)amino]methylcyclopentene], the IC50 in experiment [1] (read-out: IC50 (unit inferred)) is 300 nM; in experiment [2] (setting [3]), 393 nM.
The inhibition is how much of the control response was suppressed. Read a high inhibition as a strong effect. Molecule `CCN(CC)CCN(CC1=CC(Cc2ccccc2)(NC(=O)C(Cl)(Cl)Cl)CC1)c1cccc(O)c1` (stereo not shown) [Compound 50] returned an inhibition at 10 µM in experiment [1] of 81%. This molecule displayed an inhibition at 20 µM in experiment [2] (Oryctolagus cuniculus, @ 20 μM) of 98%.
Take `CCN(CC)CCOc1cccc(N(CCN(CC)CC)CC2=CC(Cc3ccccc3)(NC(=O)C(Cl)(Cl)Cl)CC2)c1` (stereo not shown) [Compound 51]: in experiment [2] (Oryctolagus cuniculus), the inhibition at 5 µM stood at 74%.
Consider `CCN(CC)CCN(CC1=CC(Cc2ccccc2)(NC(=O)C(Cl)(Cl)Cl)CC1)c1cccc(OCCN2CCCCC2)c1` (stereo not shown) [Compound 52], for which, in experiment [1] (read-out: IC50 (unit inferred)), the IC50 turned out to be 600 nM. This molecule also yielded an inhibition at 10 µM in experiment [2] (Oryctolagus cuniculus, @ 10 μM) of 70%.
On to `CCN(CC)CCN(CC1=CC(Cc2ccccc2)(NC(=O)C(Cl)(Cl)Cl)CC1)c1cccc(OCCN2CCOCC2)c1` (stereo not shown) [Compound 53], for which the IC50 in experiment [1] (read-out: IC50 (unit inferred)) turned out to be 300 nM; in experiment [2] (setting [3]), 3930 nM.
On to `CCN(CC)CCN(CC1=CC(Cc2ccccc2)(NC(=O)C(Cl)(Cl)Cl)CC1)c1cccc(OCCCN2CCCCC2)c1` (stereo not shown) [Compound 54], for which the IC50 in experiment [1] (read-out: IC50 (unit inferred)) worked out at 900 nM. The molecule also displayed an inhibition at 5 µM in experiment [2] (Oryctolagus cuniculus) of 24%.
On to `CCN(CC)CCN(CC1=CC(Cc2ccccc2)(NC(=O)C(Cl)(Cl)Cl)CC1)c1cccc(OCCN2CCCC2)c1` (stereo not shown) [Compound 55], for which the IC50 in experiment [1] (read-out: IC50 (unit inferred)) came out at 900 nM. In experiment [2] (Oryctolagus cuniculus), this molecule registered an inhibition at 2 µM of 43%.
For the molecule `CN(C)CCSc1ccc(NCC2=CC(Cc3ccccc3)(NC(=O)C(Cl)(Cl)Cl)CC2)cc1` (stereo not shown) [Compound 56], the IC50 in experiment [1] (read-out: IC50 (unit inferred)) came to 1500 nM. For the same molecule, the inhibition at 2 µM in experiment [2] (Oryctolagus cuniculus) was 24%.
In the case of `O=C(NC1(Cc2ccccc2)C=C(CN(CCN2CCOCC2)Cc2cccc(OCCN3CCOCC3)c2)CC1)C(Cl)(Cl)Cl` (stereo not shown) [Compound 57], the IC50 in experiment [1] (read-out: IC50 (unit inferred)) is 700 nM; in experiment [2] (Oryctolagus cuniculus, read-out: IC50 (unit inferred)) it was 1060 nM.
On to `O=C(c1ccncc1)N(CC1=CC(Cc2ccccc2)(NC(=O)C(Cl)(Cl)Cl)CC1)c1cccc(OCCN2CCOCC2)c1` (stereo not shown) [Compound 111], for which 1 µM produced 51% inhibition in experiment [1].
Regarding `O=C(Nc1cccc(Br)c1)N(CC1=CC(Cc2ccccc2)(NC(=O)C(Cl)(Cl)Cl)CC1)c1cccc(OCCN2CCOCC2)c1` (stereo not shown) [Compound 112], in experiment [1], the inhibition at 1 µM was determined as 51%.
The molecule `O=C(c1cccc(F)c1)N(CC1=CC(Cc2ccccc2)(NC(=O)C(Cl)(Cl)Cl)CC1)c1cc(OCCN2CCOCC2)ccc1Cl` (stereo not shown) [Compound 113] showed an inhibition at 1 µM in experiment [1] of 59%.
As for `O=C(c1ccc(F)c(F)c1)N(CC1=CC(Cc2ccccc2)(NC(=O)C(Cl)(Cl)Cl)CC1)c1cc(OCCN2CCOCC2)ccc1Cl` (stereo not shown) [Compound 114], the inhibition at 100 µM in experiment [1] (@ 100 μM) is 52%.
`O=C(c1sccc1Br)N(CC1=CC(Cc2ccccc2)(NC(=O)C(Cl)(Cl)Cl)CC1)c1cccc(OCCN2CCOCC2)c1` (stereo not shown) [Compound 115] displayed an inhibition at 1 µM in experiment [1] of 65%.
`O=C(c1ccc([N+](=O)[O-])cc1)N(CC1=CC(Cc2ccccc2)(NC(=O)C(Cl)(Cl)Cl)CC1)c1cccc(OCCN2CCOCC2)c1` (stereo not shown) [Compound 116] gave an inhibition at 0.1 µM in experiment [1] of 69%.
In the case of `O=C(C(c1ccccc1)c1ccccc1)N(CC1=CC(Cc2ccccc2)(NC(=O)C(Cl)(Cl)Cl)CC1)c1cccc(OCCN2CCOCC2)c1` (stereo not shown) [Compound 117], the inhibition at 1 µM in experiment [1] turned out to be 42%.
In experiment [1], `O=C(Oc1ccccc1)N(CC1=CC(Cc2ccccc2)(NC(=O)C(Cl)(Cl)Cl)CC1)c1cccc(OCCN2CCOCC2)c1` (stereo not shown) [Compound 118] displayed an inhibition at 1 µM of 51%.
For `O=C(NC1CCCCC1)N(CC1=CC(Cc2ccccc2)(NC(=O)C(Cl)(Cl)Cl)CC1)c1cccc(OCCN2CCOCC2)c1` (stereo not shown) [Compound 119], in experiment [1], 1 µM produced 56% inhibition.
On to `O=C(Nc1ccc(F)cc1)N(CC1=CC(Cc2cccc(Cl)c2)(NC(=O)C(Cl)(Cl)Cl)CC1)c1cccc(OCCN2CCOCC2)c1` (stereo not shown) [Compound 120], for which the IC50 in experiment [1] (read-out: IC50) was determined as 10 nM.
As to `O=C(c1ccc(F)cc1)N(CC1=CC(Cc2cccc(Cl)c2)(NC(=O)C(Cl)(Cl)Cl)CC1)c1cccc(OCCN2CCOCC2)c1` (stereo not shown) [Compound 121], the IC50 in experiment [1] (read-out: IC50) turned out to be 30 nM.
For the molecule `O=C(c1ccc2c(c1)OCO2)N(CC1=CC(Cc2ccccc2)(NC(=O)C(Cl)(Cl)Cl)CC1)c1cccc(OCCN2CCOCC2)c1` (stereo not shown) [Compound 122], the inhibition at 1 µM in experiment [1] worked out at 77%.
`CC(C)C1(NC(=O)C(Cl)(Cl)Cl)C=C(CN(C(=O)Nc2ccccc2)c2cccc(OCCN3CCOCC3)c2)CC1` (stereo not shown) [Compound 123]: at 1 µM the inhibition in experiment [1] was 51%.
Regarding `O=C(c1cccc2ccccc12)N(CC1=CC(Cc2ccccc2)(NC(=O)C(Cl)(Cl)Cl)CC1)c1cccc(OCCN2CCOCC2)c1` (stereo not shown) [Compound 124], the inhibition at 0.1 µM in experiment [1] turned out to be 40%.
In experiment [1], `O=C(c1ccc(F)cc1)N(CC1=CC(Cc2ccc(F)cc2)(NC(=O)C(Cl)(Cl)Cl)CC1)c1cccc(OCCN2CCOCC2)c1` (stereo not shown) [Compound 125] had an inhibition at 0.04 µM of 43%.
Consider `O=C(c1cccc(F)c1)N(CC1=CC(Cc2ccc(F)cc2)(NC(=O)C(Cl)(Cl)Cl)CC1)c1cccc(OCCN2CCOCC2)c1` (stereo not shown) [Compound 126], for which the inhibition at 0.04 µM in experiment [1] is 44%.
For the molecule `O=C(Nc1ccccc1)N(CC1=CC(NC(=O)C(Cl)(Cl)Cl)(c2ccccc2)CC1)c1cccc(OCCN2CCOCC2)c1` (stereo not shown) [Compound 127], testing at 0.1 µM in experiment [1] gave an inhibition of 33%.
On the same count and under the same terms, to `O=C(c1ccc(F)cc1)N(CC1=CC(NC(=O)C(Cl)(Cl)Cl)(c2ccccc2)CC1)c1cccc(OCCN2CCOCC2)c1` (stereo not shown) [Compound 128] belongs 43%; to `O=C(c1ccc(Br)cc1)N(CC1=CC(Cc2cccc(Cl)c2)(NC(=O)C(Cl)(Cl)Cl)CC1)c1cccc(OCCN2CCOCC2)c1` (stereo not shown) [Compound 129], 70%; to `O=C(c1ccc(F)c(F)c1)N(CC1=CC(Cc2cccc(Cl)c2)(NC(=O)C(Cl)(Cl)Cl)CC1)c1cccc(OCCN2CCOCC2)c1` (stereo not shown) [Compound 130], 78%.
For the molecule `O=C(NC1(Cc2ccccc2)C=C(CNc2cccc(OCCN3CCOCC3)c2)CC1)C(F)(F)F` (stereo not shown) [Compound 131], the inhibition at 10 µM in experiment [1] is 25%.
The molecule `CC(=O)NC1(Cc2ccccc2)C=C(CN(C(=O)c2ccc(F)cc2)c2cccc(OCCN3CCOCC3)c2)CC1` (stereo not shown) [Compound 133] showed an inhibition at 1 µM in experiment [1] of 51%.
On to `O=C(Nc1ccccc1)N(CC1=CC(Cc2ccccc2)(NC(=O)C(F)(F)F)CC1)c1cccc(OCCN2CCOCC2)c1` (stereo not shown) [Compound 134], for which, in experiment [1], testing at 1 µM gave an inhibition of 69%.
Still for that read-out and setting: as for `O=C(Nc1ccccc1)N(CC1=CC(Cc2ccccc2)(NC(=O)C(Cl)(Cl)Cl)CC1)c1cccc(OCC[N+]2([O-])CCOCC2)c1` (stereo not shown) [Compound 136], the figure is 57%; as for `O=C(c1ccc(Br)cc1)N(CC1=CC(Cc2ccccc2)(NC(=O)C(Cl)(Cl)Cl)CC1)c1cccc(OCC[N+]2([O-])CCOCC2)c1` (stereo not shown) [Compound 137], 50%; as for `O=C(c1ccc(-c2ccccc2)cc1)N(CC1=CC(Cc2ccccc2)(NC(=O)C(Cl)(Cl)Cl)CC1)c1cccc(OCCN2CCOCC2)c1` (stereo not shown) [Compound 1407], 58%.
